25 compounds from patent publication US9718804B2, “GSK-3 inhibitors” (BRISTOL-MYERS SQUIBB COMPANY, priority 2013, dated 2017) can be followed below.

The structures appear in SMILES notation. Read-outs that look alike come from different tables or passages of the source.

One test concerns the target GSK3β (Homo sapiens, UniProt P49841). As to the kind of experiment: GSK3β kinase assay (Caliper LabChip, fluoresceinated peptide substrate). Type of test: biochemical. The essentials: (§1)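 IC50 values were derived by non-linear regression from eleven-point dose series. Each reaction was held at room temperature for 20 hours and quenched with EDTA.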
The next test deals with GSK3α (Homo sapiens, UniProt P49840). Briefly: GSK3α kinase assay (Caliper LabChip, fluoresceinated peptide substrate). The test is classed as biochemical. The essentials:
as §1

In another test the test system is pTau. Briefly: pTau assay (no method described). Type of test: cell-based.
Setting [1] is: first value of the cell, 250 pM enzyme, 20 uM ATP, 20 hours at room temperature, read-out: GSK3β/α (nM): GSK3β IC50.
Setting [2] is: second value of the cell, 250 pM enzyme, 20 uM ATP, 20 hours at room temperature, read-out: GSK3β/α (nM): GSK3α IC50.

Chain of GSK3β (P49841 whole entry, species assumed): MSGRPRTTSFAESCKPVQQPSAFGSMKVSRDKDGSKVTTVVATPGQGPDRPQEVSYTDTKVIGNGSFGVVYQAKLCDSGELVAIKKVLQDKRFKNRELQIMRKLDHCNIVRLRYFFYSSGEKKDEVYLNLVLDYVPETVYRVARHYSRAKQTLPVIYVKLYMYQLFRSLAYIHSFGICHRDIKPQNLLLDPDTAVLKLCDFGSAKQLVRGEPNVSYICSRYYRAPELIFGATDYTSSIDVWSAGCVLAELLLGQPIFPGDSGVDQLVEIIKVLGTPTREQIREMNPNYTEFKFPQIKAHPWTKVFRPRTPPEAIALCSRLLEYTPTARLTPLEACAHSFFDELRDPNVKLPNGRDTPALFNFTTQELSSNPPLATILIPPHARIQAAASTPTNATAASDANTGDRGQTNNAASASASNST
Chain of GSK3α (P49840 whole entry, species assumed): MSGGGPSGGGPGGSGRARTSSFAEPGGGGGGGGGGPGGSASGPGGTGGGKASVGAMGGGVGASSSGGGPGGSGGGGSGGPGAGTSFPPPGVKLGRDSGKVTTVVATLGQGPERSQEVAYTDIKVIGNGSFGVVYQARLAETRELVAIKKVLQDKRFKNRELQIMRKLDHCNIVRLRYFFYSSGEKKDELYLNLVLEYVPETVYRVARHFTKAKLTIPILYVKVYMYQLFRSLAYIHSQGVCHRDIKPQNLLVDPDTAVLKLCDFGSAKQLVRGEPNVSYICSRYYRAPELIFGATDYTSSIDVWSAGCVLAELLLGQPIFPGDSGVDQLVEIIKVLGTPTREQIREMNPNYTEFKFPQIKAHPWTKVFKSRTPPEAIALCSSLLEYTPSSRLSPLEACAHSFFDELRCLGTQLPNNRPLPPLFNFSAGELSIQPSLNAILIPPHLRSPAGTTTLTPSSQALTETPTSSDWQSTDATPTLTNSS

As to `O=C(Nc1cnc(Cl)cc1C(=O)C1CC1)c1ccnc(Nc2ccc(C(F)(F)F)cn2)c1` [Example 92, N-(6-Chloro-4-(cyclopropanecarbonyl)pyridin-3-yl)-2-((5-(trifluoromethyl)pyridin-2-yl)amino)isonicotinamide], the IC50 is 8.8 nM on GSK3β (setting [1]), 4 nM against GSK3α and 1400 nM in the test on pTau.
In the case of `O=C(Nc1cnc(Cl)cc1C(O)C1CC1)c1ccnc(Nc2ccc(C(F)(F)F)cn2)c1` (stereo not drawn) [Example 93, N-(6-Chloro-4-(cyclopropyl(hydroxy)methyl)pyridin-3-yl)-2-((5-(trifluoromethyl)pyridin-2-yl)amino)isonicotinamide], the IC50 at GSK3β (setting [1]) was found to be 2.6 nM; against GSK3α, 0.78 nM; in the test on pTau it was 110 nM.
Consider `O=C(Nc1cnc(F)cc1C1(C2CC2)OCCO1)c1ccnc(Nc2ccc(C(F)(F)F)cn2)c1` [Example 94, N-(4-(2-Cyclopropyl-1,3-dioxolan-2-yl)-6-fluoropyridin-3-yl)-2-((5-(trifluoromethyl)pyridin-2-yl)amino)isonicotinamide], for which the IC50 on GSK3β (setting [1]) worked out at 0.06 nM; at GSK3α it was 0.03 nM; with pTau it was 1.2 nM.
In the case of `O=C(Nc1cnc(Cl)cc1C1(c2ccccc2)OCCO1)c1ccnc(Nc2ccc(C(F)(F)F)cn2)c1` [Example 95, N-(6-Chloro-4-(2-phenyl-1,3-dioxolan-2-yl)pyridin-3-yl)-2-((5-(trifluoromethyl)pyridin-2-yl)amino)isonicotinamide], the IC50 at GSK3β (setting [1]) came to 10 nM; at GSK3α it was 5.5 nM; in the test with pTau, 910 nM.
Regarding `C[C@@H]1CO[C@](c2cc(Cl)ncc2NC(=O)c2ccnc(Nc3ccc(C(F)(F)F)cn3)c2)(C2CC2)O1` [Example 96, N-(6-Chloro-4-((2R,4R)-2-cyclopropyl-4-methyl-1,3-dioxolan-2-yl)pyridin-3-yl)-2-((5-(trifluoromethyl)pyridin-2-yl)amino)isonicotinamide], the results for the IC50 at GSK3β (setting [1]), against GSK3α and in the test with pTau were 0.29 nM, 0.16 nM and 39 nM, respectively.
Taken in the same sequence, the figures for `C[C@H]1CO[C@](c2cc(Cl)ncc2NC(=O)c2ccnc(Nc3ccc(C(F)(F)F)cn3)c2)(C2CC2)O1` [Example 97, N-(6-Chloro-4-((2R,4S)-2-cyclopropyl-4-methyl-1,3-dioxolan-2-yl)pyridin-3-yl)-2-((5-(trifluoromethyl)pyridin-2-yl)amino)isonicotinamide] were 1.5 nM, 0.56 nM and 84 nM.
The matching figures for `CC(O)(c1cc(Cl)ncc1NC(=O)c1ccnc(Nc2ccc(C(F)(F)F)cn2)c1)C1CC1` (stereo not drawn) [Example 98, N-(6-Chloro-4-(1-cyclopropyl-1-hydroxyethyl)pyridin-3-yl)-2-((5-(trifluoromethyl)pyridin-2-yl)amino)isonicotinamide]: 3.7 nM, 4 nM and 230 nM.
The matching figures for `O=C(Nc1cnc(Cl)cc1C(O)(C1CC1)C1CC1)c1ccnc(Nc2ccc(C(F)(F)F)cn2)c1` [Example 99, N-(6-Chloro-4-(dicyclopropyl(hydroxy)methyl)pyridin-3-yl)-2-((5-(trifluoromethyl)pyridin-2-yl)amino)isonicotinamide]: 6.4 nM, 4.6 nM and 430 nM.
`CCCC(O)c1cc(Cl)ncc1NC(=O)c1ccnc(Nc2ccc(C(F)(F)F)cn2)c1` (stereo not drawn) [Example 100, N-(6-Chloro-4-(1-hydroxybutyl)pyridin-3-yl)-2-((5-(trifluoromethyl)pyridin-2-yl)amino)isonicotinamide]: the IC50 on GSK3β (setting [1]) came out at 11 nM; on GSK3α, 8.4 nM; with pTau, 500 nM.
Take `CCC(O)(c1cc(Cl)ncc1NC(=O)c1ccnc(Nc2ccc(C(F)(F)F)cn2)c1)C1CC1` (stereo not drawn) [Example 101, N-(6-Chloro-4-(1-cyclopropyl-1-hydroxypropyl)pyridin-3-yl)-2-((5-(trifluoromethyl)pyridin-2-yl)amino)isonicotinamide]: the IC50 on GSK3β (setting [1]) was determined as 11 nM; on GSK3α it was 7.4 nM; in the test with pTau, 660 nM.
On to `CC(C)C(O)(c1cc(Cl)ncc1NC(=O)c1ccnc(Nc2ccc(C(F)(F)F)cn2)c1)C1CC1` (stereo not drawn) [Example 102, N-(6-Chloro-4-(1-cyclopropyl-1-hydroxy-2-methylpropyl)pyridin-3-yl)-2-((5-(trifluoromethyl)pyridin-2-yl)amino)isonicotinamide], for which the IC50 amounted to 43 nM at GSK3β (setting [1]), 30 nM against GSK3α and 1200 nM in the test with pTau.
Take `CC(C)C(O)c1cc(Cl)ncc1NC(=O)c1ccnc(Nc2ccc(C(F)(F)F)cn2)c1` (stereo not drawn) [Example 103, N-(6-Chloro-4-(1-hydroxy-2-methylpropyl)pyridin-3-yl)-2-((5-(trifluoromethyl)pyridin-2-yl)amino)isonicotinamide]: the IC50 on GSK3β (setting [1]) was 6.7 nM; against GSK3α it was 3.9 nM; with pTau it was 540 nM.
As for `CC(C)(C)C(O)c1cc(Cl)ncc1NC(=O)c1ccnc(Nc2ccc(C(F)(F)F)cn2)c1` (stereo not drawn) [Example 104, N-(6-Chloro-4-(1-hydroxy-2,2-dimethylpropyl)pyridin-3-yl)-2-((5-(trifluoromethyl)pyridin-2-yl)amino)isonicotinamide], the results for the IC50 at GSK3β (setting [1]), against GSK3α and in the test with pTau were 18 nM, 9.9 nM and 280 nM, respectively.
Taken in the same sequence, the figures for `Cc1cc(C(O)C2CC2)c(NC(=O)c2ccnc(Nc3ccc(C(F)(F)F)cn3)c2)cn1` (stereo not drawn) [Example 106, N-(4-(Cyclopropyl(hydroxy)methyl)-6-methylpyridin-3-yl)-2-((5-(trifluoromethyl)pyridin-2-yl)amino)isonicotinamide] were 0.25 nM, 0.49 nM and 22 nM.
`Cc1cc(C(C)(O)C2CC2)c(NC(=O)c2ccnc(Nc3ccc(C(F)(F)F)cn3)c2)cn1` (stereo not drawn) [Example 107, N-(4-(1-Cyclopropyl-1-hydroxyethyl)-6-methylpyridin-3-yl)-2-((5-(trifluoromethyl)pyridin-2-yl)amino)isonicotinamide]: the IC50 came out at 0.92 nM at GSK3β (setting [1]), 0.75 nM against GSK3α and 94 nM with pTau.
Take `CCC1(c2cc(Cl)ncc2NC(=O)c2ccnc(Nc3ccccn3)c2)OCCO1` [Example 108, N-(6-Chloro-4-(2-ethyl-1,3-dioxolan-2-yl)pyridin-3-yl)-2-(pyridin-2-ylamino)isonicotinamide]: the IC50 against GSK3β stood at 1.4 nM; at GSK3α (setting [2]) it was 0.95 nM; in the test with pTau, 30 nM.
Consider `CCC1(c2cc(Cl)ncc2NC(=O)c2ccnc(Nc3ccc(C)cn3)c2)OCCO1` [Example 109, N-(6-Chloro-4-(2-ethyl-1,3-dioxolan-2-yl)pyridin-3-yl)-2-((5-methylpyridin-2-yl)amino)isonicotinamide], for which the IC50 against GSK3β was determined as 1.8 nM; on GSK3α (setting [2]), 1.2 nM; in the test with pTau, 45 nM.
Take `O=C(Nc1cnc(F)cc1OCC(F)(F)F)c1ccnc(Nc2ccc(Cl)cn2)c1` [Example 110, 2-((5-Chloropyridin-2-yl)amino)-N-(6-fluoro-4-(2,2,2-trifluoroethoxy)pyridin-3-yl)isonicotinamide]: the IC50 at GSK3β (setting [1]) was 3.8 nM; against GSK3α it was 0.51 nM; with pTau, 170 nM.
For the compound `O=C(Nc1cnc(Cl)cc1C1(O)CCOCC1)c1ccnc(Nc2ccc(Cl)cn2)c1` [Example 111, N-(6-Chloro-4-(4-hydroxytetrahydro-2H-pyran-4-yl)pyridin-3-yl)-2-((5-chloropyridin-2-yl)amino)isonicotinamide], the IC50 on GSK3β amounted to 2.6 nM; on GSK3α (setting [2]), 1.4 nM; in the test on pTau, 530 nM.
With `CC(C)(C)COc1cc(F)ncc1NC(=O)c1ccnc(Nc2ccc(Cl)cn2)c1` [Example 112, 2-((5-Chloropyridin-2-yl)amino)-N-(6-fluoro-4-(neopentyloxy)pyridin-3-yl)isonicotinamide], the IC50 was found to be 5 nM at GSK3β (setting [1]), 3 nM at GSK3α and 850 nM with pTau.
In the case of `CCC1(c2cc(Cl)ncc2NC(=O)c2ccnc(Nc3ccc(F)cn3)c2)OCCO1` [Example 113, N-(6-Chloro-4-(2-ethyl-1,3-dioxolan-2-yl)pyridin-3-yl)-2-((5-fluoropyridin-2-yl)amino)isonicotinamide], the results for the IC50 on GSK3β (setting [1]), on GSK3α and in the test on pTau were 1.7 nM, 0.04 nM and 14 nM, respectively.
Consider `O=C(Nc1cnc(F)cc1OCC(F)F)c1ccnc(Nc2ccc(F)cn2)c1` [Example 114, N-(4-(2,2-Difluoroethoxy)-6-fluoropyridin-3-yl)-2-((5-fluoropyridin-2-yl)amino)isonicotinamide], for which the IC50 at GSK3β (setting [1]) is 4.4 nM; against GSK3α, 1.5 nM; in the test with pTau, 220 nM.
In the case of `O=C(Nc1cnccc1-c1ccccc1)c1ccnc(Nc2cc3ccccc3cn2)c1` [Example 115, 2-(Isoquinolin-3-ylamino)-N-(4-phenylpyridin-3-yl)isonicotinamide], the IC50 is 0.97 nM on GSK3β (setting [1]), 0.65 nM on GSK3α and 297 nM with pTau.
The matching figures for `O=C(Nc1cnccc1-c1ccccc1)c1ccnc(Nc2ccc3ccccc3n2)c1` [Example 116, N-(4-Phenylpyridin-3-yl)-2-(quinolin-2-ylamino)isonicotinamide]: 7.8 nM, 3.9 nM and 610 nM.
On to `O=C(Nc1cncc(F)c1-c1ccccc1)c1ccnc(Nc2ccc(C(F)(F)F)cn2)c1` [Example 117, N-(5-Fluoro-4-phenylpyridin-3-yl)-2-((5-(trifluoromethyl)pyridin-2-yl)amino)isonicotinamide], for which the values for the IC50 at GSK3β (setting [1]), on GSK3α and in the test on pTau were 3 nM, 1.4 nM and 254 nM, respectively.
